Source: paper PMC8989062 (Journal of medicinal chemistry, 2022)
Entries after “also recorded” stand apart in the source; their conditions may differ.

Columns and labels:
HIV = conditions: cited from earlier work
BRD4 BD1 E151A mutant = BRD4 BD1 E151A mutant (Homo sapiens, UniProt O60885, E151A); test: thermal shift assay; conditions: TSA, 5 μM protein
[1] = test system: H3K122Ac (HAT activity of BRD4); test: immunofluorescence staining of H3K122Ac in hSAECs; format: cell-based, human
[2] = test system: H3K122Ac (HAT activity of BRD4); test: immunofluorescence staining of H3K122Ac in lung sections of mice; conditions: n = 5
[3] = cited from earlier work
IL-6 = test: poly; conditions: for activity at 10 µM: Homo sapiens, read-out: Residual activity rate, IL-6 (%)
[4] = in vivo PK profiles in rats; conditions: rat
[5] = test system: poly(I:C)-induced BRD4-dependent acute airway inflammation; test: murine model of poly; format: in vivo, C57BL/6J mice; conditions: mice, 10 mg/kg po
CIG5 = test: poly; conditions: Homo sapiens, read-out: Residual activity rate, CIG5 (%)
[6] = test system: BET BD1 and BD2 bromodomains; conditions: SPR; cited from earlier work
[7] = in vivo; cited from earlier work

SMILES: Cc1sc2c(c1C)C(c1ccc(Cl)cc1)=N[C@@H](CC(=O)OC(C)(C)C)c1nnc(C)n1-2 [Compound 3, reference compound]
- effect on latent HIV (HIV): activate latent HIV
- binding to E151A mutant of BRD4 BD1 compared with WT (BRD4 BD1 E151A mutant): maintained a similar binding activity
- poly(I:C)-induced H3K122Ac accumulation in hSAECs [1]: blocked
- poly(I:C)-induced H3K122Ac accumulation in lung tissue of mice [2]: blocked

SMILES: Cc1cc(/N=N/c2ccc(S(=O)(=O)NC3CCCC3)cc2)c(N)cc1O [Compound 7]
- oral bioavailability [3]: 0.5%
- AUC0–t ([3]; oral dose of 20 mg/kg): 104 ng·h/mL
- Cmax ([3]; oral dose of 20 mg/kg): 36 ng/mL

SMILES: O=C(Nc1ccc(C(F)(F)F)cc1)Nc1ccc(S(=O)(=O)N2CCC[C@H]2C(=O)Nc2ccccc2)cc1 [Compound 45, (S)-N-Phenyl-1-((4-(3-(4-(trifluoromethyl)phenyl)ureido)phenyl)-sulfonyl)pyrrolidine-2-carboxamide]
- effect on HIV (HIV): epigenetically suppress HIV

SMILES: O=C(Nc1ccc(C(F)(F)F)cc1)Nc1ccc(S(=O)(=O)N2CCC[C@H]2CO)cc1 [Compound 50, (S)-1-(4-((2-(Hydroxymethyl)pyrrolidin-1-yl)sulfonyl)phenyl)-3-(4 (trifluoromethyl)phenyl)urea]
- activity at 10 µM (IL-6): 1.71 ± 0.13%

SMILES: O=C(Nc1ccc(C(F)(F)F)cc1)Nc1ccc(S(=O)(=O)N2CCC[C@H]2CN2CCOCC2)cc1 [Compound 52, (S)-1-(4-((2-(Morpholinomethyl)pyrrolidin-1-yl)sulfonyl)phenyl)-3-(4-(trifluoromethyl)phenyl)urea]
- activity at 10 µM (IL-6): 0.35 ± 0.03%
- binding to E151A mutant of BRD4 BD1 compared with WT (BRD4 BD1 E151A mutant): complete loss of its binding affinity
- improvement of oral bioavailability compared to compound 7 [4]: approximately 30 fold
- poly(I:C)-induced H3K122Ac accumulation in hSAECs [1]: significantly blocked
- poly(I:C)-induced BRD4-dependent acute airway inflammation, overall [5]: more efficacious
- poly(I:C)-induced neutrophilic inflammation around small- and medium-sized airways (histology) [5]: completely inhibited
- inflammatory cytokines (IL-6, KC, MCP-1, RANTES) in BALF ([5]; n = 5, 10 mg/kg): significantly attenuated; also recorded: blocked
- inflammatory gene expression (IL-6, KC, ISG54, CIG5) in lung tissues ([5]; n = 5, 10 mg/kg): significantly attenuated; also recorded: blocked
- total cells and neutrophils in BALF ([5]; n = 5, 10 mg/kg): significantly attenuated; also recorded: blocked
- poly(I:C)-induced H3K122Ac accumulation in lung tissue of mice [2]: significantly blocked
- activity at 10 µM (CIG5): 0.34 ± 0.025%

SMILES: O=C(Nc1ccc(C(F)(F)F)cc1)Nc1ccc(S(=O)(=O)N2CCC[C@H]2CN2CCC(O)CC2)cc1 [Compound 53, (S)-1-(4-((2-((4-Hydroxypiperidin-1-yl)methyl)pyrrolidin-1-yl)-sulfonyl)phenyl)-3-(4-(trifluoromethyl)phenyl)urea]
- fold more potent than compound 1, IL-6 (IL-6; ratio of IC50 values): 15.9 fold
- fold more potent than compound 3, IL-6 (IL-6; ratio of IC50 values): 4.8 fold
- poly(I:C)-induced H3K122Ac accumulation in hSAECs [1]: significantly blocked
- poly(I:C)-induced H3K122Ac accumulation in lung tissue of mice [2]: significantly blocked

SMILES: CC(=O)Nc1c(F)cc(C(=O)N[C@H]2CC[C@H](O)CC2)cc1O[C@@H](C)c1ccccc1 [GSK046]
- selectivity BET BD2 over BD1 [6]: > 300 fold

SMILES: COCc1nc2cnc3cc(-c4c(C)noc4C)c(OC[C@H]4CCNC4)cc3c2n1[C@H](C)c1ccccc1 [GSK778]
- selectivity BET BD1 over BD2 [6]: > 130 fold

SMILES: COc1cc(OC)c2c(=O)cc(-c3cc(C)c(OC[C@H](O)CN4CCN(C)CC4)c(C)c3)oc2c1 [ZL0516, (R)-2-(4-(2-hydroxy-3-(4-methylpiperazin-1-yl)propoxy)-3,5-dimethylphenyl)-5,7-di-methoxy-4H-chromen-4-one]
- oral bioavailability F [7]: 35%
